PubChem BioAssay (NCI)
Where “and” joins values, the source holds several entries; their conditions need not be identical. Equal values may be shown once.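 Cells were grown in 96-well plates and exposed to each compound for 48 hours at five concentrations; endpoints were interpolated linearly between bracketing concentrations, or set to the highest concentration if not reached. GI50: concentration for 50% inhibition of growth. The concentration for full growth arrest is given as TGI.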

Columns and labels:
Assay in all cases: growth of human tumour cells (NCI), 48 h
HCT-116 colon = tested on: HCT-116 colon
HOP-62 NSCLC = tested on: HOP-62 NSCLC
NCI/ADR-RES ovarian = tested on: NCI/ADR-RES ovarian
OVCAR-4 ovarian = tested on: OVCAR-4 ovarian
SF-539 CNS = tested on: SF-539 CNS
SK-MEL-28 melanoma = tested on: SK-MEL-28 melanoma
SK-MEL-5 melanoma = tested on: SK-MEL-5 melanoma
SR leukemia = tested on: SR leukemia
T-47D breast = tested on: T-47D breast
UACC-62 melanoma = tested on: UACC-62 melanoma

SMILES | GI50 (HCT-116 colon) [µM] | TGI (HCT-116 colon) | TGI (HOP-62 NSCLC) [µM] | GI50 (NCI/ADR-RES ovarian) [µM] | TGI (NCI/ADR-RES ovarian) [µM] | GI50 (OVCAR-4 ovarian) [µM] | TGI (OVCAR-4 ovarian) [µM] | GI50 (SF-539 CNS) [µM] | TGI (SF-539 CNS) [µM] | GI50 (SK-MEL-28 melanoma) [µM] | TGI (SK-MEL-28 melanoma) [µM] | GI50 (SK-MEL-5 melanoma) [µM] | TGI (SK-MEL-5 melanoma) [µM] | GI50 (SR leukemia) [µM] | TGI (SR leukemia) [µM] | GI50 (T-47D breast) [µM] | TGI (T-47D breast) [µM] | GI50 (UACC-62 melanoma) [µM] | TGI (UACC-62 melanoma) [µM] | GI50 (HOP-62 NSCLC) [µM]
CN1CCN(C2CCN(C(=O)Nc3cc(Oc4ccc(NC(=O)C5(C(=O)Nc6ccc(F)cc6)CC5)c(F)c4)ccn3)CC2)CC1 | 1.05 | > 10 µM | > 3.92 | > 8.16 | > 10 | 1.14 | 9.84 | 0.994 | > 2.2 | 0.771 | 2.28 | 2.43 | 6.36 | 0.53 | 1.77 | 5.56 | > 10 | 0.771 | > 2.02 | 
CCN1CCN(C(=O)[C@@]2(C)CC[C@]3(C)CC[C@]4(C)C(=CC(=O)[C@@H]5[C@@]6(C)CC[C@H](OC7C[C@@H](O)[C@@H](O)C(C)O7)C(C)(C)[C@@H]6CC[C@]54C)[C@@H]3C2)CC1 (stereo partly drawn) | 1.65 | 5.74 µM | 10.8 | 2.53 | 12.9 | 1.27 | 3.08 | 0.937 | 1.85 | 1.06 | 2.25 | 1.56 | 4.6 | 1.06 | 2.57 | 9.57 | 23.1 | 0.892 | 1.75 | 2.39
CC1(C)S[C@@H]2[C@H](NC(=O)C3(N)CCCCC3)C(=O)N2[C@H]1C(=O)O |  | > 100 µM | > 100 |  | > 100 |  | > 100 |  | > 100 |  | > 100 |  | > 100 |  | > 100 |  | > 100 |  | > 100 | 
C[N+](C)(C)CC1CCCc2ccccc2C1=O (stereo not drawn) | 4.27 | 3.27 µM and 8.46 µM | 34.3 | 22.4 | 54 | 15.7 | 41.2 | 8.75 | 31.7 |  | 34.5 |  | 15.5 |  | 8.08 | 19.1 |  |  | 26.5 | 
Cn1c(I)c(C#CCO[Si](C)(C)C(C)(C)C)c(=O)[nH]c1=O | 14.3 | 28.5 µM | > 59 | 19.2 | 38.1 | 10.1 | 27.4 | 16.9 | 30.9 | 2.95 | 9.05 | 17.1 | 31.3 | 1.53 | 3.6 | 2.92 | 15 | 17.2 | 32.2 | > 44.1
O=C(/C=C/c1ccccc1)CCC1C(=O)c2ccccc2C1=O |  | > 100 µM |  |  | > 100 |  | > 100 |  | > 100 |  | > 100 |  | > 100 |  | > 100 |  | > 100 |  | > 100 | 
COc1ccc(Sc2[nH]c(C(C)=O)c3ccccc23)cc1 | 12 | 24.3 µM | 25.3 | 11.8 | 31.8 | 13.3 | 32 | 14.5 | 27.6 | 13.5 | 26.3 | 12.5 | 24.9 | 1.35 | 15.2 | 8.41 | 36 | 10.3 | 22 | 12.7
O=C(Nc1ccc(Br)cc1F)c1cc(F)ccc1O | 0.44 | 1.96 µM | 7.82 | 0.533 | 5.4 | 0.612 | > 27.8 | 0.42 | 4.2 | 0.377 | 1.84 | 0.227 | 0.541 | 0.476 | > 100 | 0.511 | 5.59 | 0.285 | 1 | 1.56
CNCc1ccccc1-c1csc([C@@H](C)Nc2nc(C)nc3cc(OC)c(OC)cc23)c1 | 1.71 | 3.41 µM | 12.3 | 2.01 | 4.68 | 2.4 | 10.7 | 1.5 | 2.94 | 1.95 | 3.53 | 1.72 | 3.09 | 0.624 | 2.38 | 1.85 | 4.1 | 1.84 | 3.43 | 1.43
C/C=C(\C)C(=O)O[C@H]1C=CC(=O)O[C@H]1CCC(=O)[C@H](C)O | 2.87 | 11.2 µM | 48.2 | 21.1 | 56.1 | 11.9 | 25.4 | 19.2 | 35.8 | 9.9 | 24.6 | 13.8 | 27.1 | 2.22 | 13.2 | 10.4 | 32.3 | 14.1 | 27.7 | 22.5
COc1cc(-c2oc(=O)ccc2C#Cc2ccccn2)cc(OC)c1OC | 2.75 | > 100 µM | > 100 | 1.09 |  | 9.65 | > 100 | 3.03 | 13.8 | 3.34 | > 100 | 2.09 | 11.2 | 0.257 | > 39.9 | 3.46 | > 41.8 | 1.82 | > 20.1 | 2.42
CCN(CC)CCC(CNc1ccnc2cc(Cl)ccc12)c1ccc(Cl)cc1 (stereo not drawn) | 1.01 | 2.32 µM | 5.9 | 2.06 | 8.65 | 0.764 | 4.32 | 1.25 | 2.77 | 0.763 | 2.06 | 1.11 | 2.34 | 0.311 | 1.48 | 1.92 | 4.21 | 1.18 | 2.69 | 1.78
CSc1nc(=O)n(CCC#N)nc1SC |  | 30.1 µM | > 100 |  | > 100 |  |  |  | > 100 |  | 47.8 |  | 43 |  | > 100 |  | 62.7 |  | > 100 | 
N#Cc1c(NC(=O)NCc2ccccc2)sc2c1CCCCC2 | 0.528 | > 100 µM | > 64.2 | 0.42 | 27.1 | 1.32 | > 100 | 0.328 | 1.87 | 2.77 | > 100 | 0.478 | 3.6 | 0.346 | > 100 | 0.343 | > 100 | 0.533 | > 40.2 | 0.706
CCCCC#CC1=C(Br)C(=O)OC1 | 0.139 | 0.327 µM | 20.8 | 2.04 | 5.9 | 3.99 | 11.3 | 2.52 | 14.4 | 3.48 | 16.4 | 0.118 | 0.366 | 0.36 | > 100 | 5.79 | > 31.6 | 2.24 | 7.1 | 7.13
COc1cccc(C2CC(C)(O)Oc3cc4c(cc32)OCO4)c1O (stereo not drawn) |  | > 69.4 µM | 79.7 |  | 59.3 |  | > 100 |  | 38.5 |  | > 100 |  | > 61.3 |  | > 51.7 |  | > 100 |  | > 75.9 | 
CC1=C(C(=O)Nc2ccc(F)c(Cl)c2)C(c2ccccc2O)NC(=S)N1 (stereo not drawn) | > 50 | > 50 µM | > 50 | > 50 | > 50 |  |  |  |  |  |  | 21.9 | > 50 | 34.8 | > 50 | > 50 | > 50 | > 50 | > 50 | > 50
CCOC(=O)C1=CN(C)C=C(C(=O)OCC)C1c1cc(Br)c(OCC)c(OC)c1 | 25.9 | > 100 µM | > 100 | > 100 | > 100 | 12.5 | > 100 | > 100 | > 100 | > 100 | > 100 | 49.2 | > 100 | > 100 | > 100 | 23.5 | > 100 | 69.4 | > 100 | > 100
CC1(C)N=C(N)N=C(N)N1c1ccc(CCCCc2ccc(Cl)cc2S(=O)(=O)F)c(Cl)c1 | 0.346 | > 38.3 µM | 12.7 | 5.28 | > 100 | 3.11 | 19.2 | 0.539 | 6.76 | 0.965 | 8.46 | 0.552 | 12.6 | 0.271 | 26.2 | 1.87 | 7.56 | 0.344 | 14.3 | 0.63
NC(=O)/C=C/C(=O)c1c(Cl)cccc1Cl | 0.476 |  |  | 1.77 | 3.44 |  |  | 1.41 | 2.71 | 1.21 | 2.52 | 1.4 | 2.7 | 0.224 | 1.37 | 0.191 | 0.408 | 1.51 | 2.84 | 2.63
COC(=O)COc1ccccc1/C=C1\N=C(c2ccccc2)N(c2cc(C(F)(F)F)ccc2Cl)C1=O | 38.2 | > 100 µM | > 100 | 45.8 | > 100 | 39.5 | > 100 | 42.7 | > 100 | 47.6 | > 100 | 42.9 | > 100 | 24 | 70.5 | 29.1 | > 100 | > 100 | > 100 | 45
Cc1ccc(SC2c3ccc(C)cc3Oc3nc(N)c(C#N)c(N)c32)cc1 (stereo not drawn) | 1.88 | 3.58 µM | 3.4 | 2.79 | 9.73 | 1.8 | 3.29 | 1.8 | 3.82 | 1.83 | 3.35 | 1.64 | 3.1 | 2.16 | 5.54 | 1.8 | 5.01 | 1.61 | 3.13 | 1.79
COc1cccc(F)c1C(=O)c1cnc(NC2CCN(S(C)(=O)=O)CC2)nc1N | 1.34 | > 25 µM | 23 | 6.9 | > 25 | 5.61 | > 25 | 3.68 | 11.7 | 3.43 | > 20.8 | 2.06 | > 23.3 | 0.644 | > 11.8 | 5.22 | 24.4 | 2.66 | 9.42 | 4.64
C(=NCCN1CCOCC1)=NC1CCCCC1 |  | > 100 µM | > 100 |  | > 100 |  | > 100 |  | > 100 |  | > 100 |  | > 100 |  | > 100 |  | > 100 |  | > 100 | 
NC(N)=N/N=C/c1c(-c2ccsc2)nc2sccn12 | 13.7 | 27.2 µM | 27.4 | 16.9 | 32.7 | 13.6 | 27.1 | 18.3 | 34.2 | 14.2 | 27.6 | 14.4 | 28.8 |  |  | 16.8 | 31.9 | 15.6 | 29 | 14.3
NC(=S)N/N=C/C(=O)O | 14.7 | > 100 µM | > 100 | 96.3 | > 100 | 37.5 | > 100 | > 100 | > 100 | > 100 | > 100 | > 100 | > 100 | > 100 | > 100 | 21.3 | > 100 |  |  | > 100
CC(C)C1=CC23CCC4C(C)(C(=O)O)CCCC4(C)C2CC1C1C(=O)N(c2ccc(Cc4ccc(N5C(=O)C6C7CC8C9(C)CCCC(C)(C(=O)O)C9CCC8(C=C7C(C)C)C6C5=O)cc4)cc2)C(=O)C13 (stereo not drawn) |  | 19.1 µM | 25.2 |  |  |  | 33.2 |  | 20.1 |  | 24.9 |  | 24.8 |  | 28 |  | 42.6 |  | 29.7 | 
CO/N=C(/C)c1cccc(Nc2cc(-n3nnc4ccccc43)nc3ccccc23)c1 | 27 | > 100 µM | 53.6 | 61.9 | > 100 | 65.6 | > 100 | 45.5 | > 100 | > 100 | > 100 | 14.4 | 32.5 |  |  | > 100 | > 100 | 25.2 | > 100 | 19.6
